Experimental data: PMC8158844 (ACS Omega, 2021)
Marks after values point to notes of the source that are not given here.

Columns and labels:
[1] = Metabolic stability in porcine liver S9 fraction; format: in vitro ADME; conditions: 30 min; for stability porcine liver S9 fractions (percent of parent remaining): 37 °C, no NADPH added; for stability in the absence of BNNP (percent of parent remaining) / stability in the presence of BNNP (percent of parent remaining): porcine liver homogenate; for stability in the presence of BNNP (percent of parent remaining): carboxylesterase 1 inhibitor BNPP 1 mM
[2] = Metabolic stability in porcine blood plasma; format: in vitro ADME; conditions: for stability porcine blood plasma (percent of parent remaining): Table 3, 30 min, 37 °C, n = 3 unless otherwise stated; for metabolic stability porcine plasma (percent of parent remaining): Table 1, 30 min incubation, n = 3
[3] = target: porcine albumin (Sus scrofa, UniProt P08835); assay: Stability in porcine albumin solution; format: in vitro ADME; conditions: porcine albumin 17.5 mg/mL in PBS; 30 min, 37 °C
Chain of porcine albumin (P08835 25-607): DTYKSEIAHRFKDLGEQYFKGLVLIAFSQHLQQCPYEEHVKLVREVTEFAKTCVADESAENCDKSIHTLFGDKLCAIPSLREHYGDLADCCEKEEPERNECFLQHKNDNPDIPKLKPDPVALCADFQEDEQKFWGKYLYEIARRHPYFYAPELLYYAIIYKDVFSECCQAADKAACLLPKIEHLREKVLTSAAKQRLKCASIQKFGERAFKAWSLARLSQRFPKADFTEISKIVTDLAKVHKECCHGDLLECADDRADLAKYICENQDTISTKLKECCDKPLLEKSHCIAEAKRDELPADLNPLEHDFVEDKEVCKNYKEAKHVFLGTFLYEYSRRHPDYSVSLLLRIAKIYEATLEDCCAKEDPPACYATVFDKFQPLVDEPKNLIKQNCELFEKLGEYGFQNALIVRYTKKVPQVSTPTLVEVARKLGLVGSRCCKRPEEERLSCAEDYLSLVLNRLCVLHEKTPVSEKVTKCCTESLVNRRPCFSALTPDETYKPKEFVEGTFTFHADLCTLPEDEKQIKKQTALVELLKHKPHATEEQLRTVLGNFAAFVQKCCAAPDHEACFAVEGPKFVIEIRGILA

[4] = Chemical stability in aqueous solution; format: physicochemical; conditions: for stability in PBS buffer (percent of parent remaining): PBS buffer pH 7.4 with 0.2% Triton X-100, 60 min, 37 °C
[5] = target: T1, FAAH (Rattus norvegicus, UniProt P97612); assay: Inhibition of fatty acid amide hydrolase; format: biochemical
T1 sequence (P97612 1-579): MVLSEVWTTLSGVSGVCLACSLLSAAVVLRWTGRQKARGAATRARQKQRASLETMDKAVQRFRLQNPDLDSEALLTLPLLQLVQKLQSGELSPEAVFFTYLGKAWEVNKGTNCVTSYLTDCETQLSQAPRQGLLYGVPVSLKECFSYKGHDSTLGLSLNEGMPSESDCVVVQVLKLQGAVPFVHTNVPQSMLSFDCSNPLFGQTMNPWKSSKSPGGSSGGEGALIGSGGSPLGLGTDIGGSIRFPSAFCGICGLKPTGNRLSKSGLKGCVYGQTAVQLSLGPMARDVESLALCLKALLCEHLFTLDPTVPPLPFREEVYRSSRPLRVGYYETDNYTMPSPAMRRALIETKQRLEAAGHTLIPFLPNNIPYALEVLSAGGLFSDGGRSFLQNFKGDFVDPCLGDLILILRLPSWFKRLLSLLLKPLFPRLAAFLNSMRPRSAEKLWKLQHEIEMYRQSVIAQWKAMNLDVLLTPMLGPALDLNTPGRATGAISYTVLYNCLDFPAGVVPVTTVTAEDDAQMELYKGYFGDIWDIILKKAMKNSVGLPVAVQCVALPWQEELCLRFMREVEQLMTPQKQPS

[6] = Metabolic stability in rat liver S9 fraction; format: in vitro ADME; conditions: 30 min incubation in the presence of NADPH
[7] = target: T2, human recombinant MAGL (Homo sapiens, UniProt Q99685); assay: Inhibition of monoacylglycerol lipase; format: biochemical
T2 sequence (Q99685 1-303): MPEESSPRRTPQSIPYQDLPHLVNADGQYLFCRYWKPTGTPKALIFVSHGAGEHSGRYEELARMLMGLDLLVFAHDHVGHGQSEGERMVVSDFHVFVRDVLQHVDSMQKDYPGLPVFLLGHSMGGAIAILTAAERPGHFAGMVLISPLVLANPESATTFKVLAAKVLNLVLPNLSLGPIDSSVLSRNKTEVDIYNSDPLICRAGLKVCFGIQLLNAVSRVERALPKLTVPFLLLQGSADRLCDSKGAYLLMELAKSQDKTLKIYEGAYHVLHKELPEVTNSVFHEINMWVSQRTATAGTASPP

Row | SMILES | stability porcine liver S9 fractions (percent of parent remaining) [1] [%] | stability porcine blood plasma (percent of parent remaining) [2] | stability porcine albumin solution (percent of parent remaining) [3] | stability in PBS buffer (percent of parent remaining) [4] [%] | IC50 [5] [nM] | metabolic stability rat liver S9 fraction (percent of parent remaining) [6] [%] | metabolic stability porcine plasma (percent of parent remaining) [2] [%] | IC50 [7] [nM] | inhibition at 10 µM ([7]; read-out: MAGL inhibition at 10 μM) [%] | stability in the absence of BNNP (percent of parent remaining) [1] [%] | stability in the presence of BNNP (percent of parent remaining) [1] [%] | cleavage in PBS buffer (pH 7.4) into the amine and 4-hydroxybenzonitrile ([4]; after 30 min at 37 °C, HPLC/MS) | decrease in FAAH inhibitory activity compared with compound 14 ([5]; ratio of FAAH IC50 values) | factor by which MAGL activity exceeds reference inhibitor ABX-1431 ([7]; ratio of MAGL IC50 values)
1 | O=C(O)c1cccc(OC(=O)N2CCC(CCn3ccc4ccc(F)cc43)CC2)c1 [Compound 56] | 72 ± 7 | >95% | 94 ± 3% | >95 | 27 | – | – | – | – | – | – | – | – | –
2 | O=C(OC(C(F)(F)F)C(F)(F)F)N1CCN(Cc2ccc(C(F)(F)F)cc2N2CCCC2)CC1 [ABX-1431 (2), reference compound] | 81 ± 3 | 95 ± 2% | 87 ± 6% | 90 ± 5 | – | 92 ± 2 | 95 ± 2 | – | – | – | – | – | – | –
3 | O=C(NCCCCCn1ccc2ccc(F)cc21)Oc1cccc(C(=O)O)c1 [Compound 35] | 74 ± 2 | 78 ± 1% | 93 ± 3% | >95 | 18 | – | – | > 10000 | 31 | – | – | – | – | –
4 | O=C(O)c1ccc(OC(=O)N2CCC(CCn3ccc4ccc(F)cc43)CC2)cc1 [Compound 54, 4-({4-[2-(6-Fluoroindol-1-yl)ethyl]piperidine-1-carbonyl}oxy)benzoic Acid] | 66 ± 9 | 94 ± 3% | 93 ± 8% | >95 | 15 | – | – | – | – | – | – | – | – | –
5 | O=C(NCCCCCn1ccc2ccc(F)cc21)Oc1ccccc1 [Compound 14, Phenyl N-[5-(6-Fluoroindol-1-yl)pentyl]carbamate] | – | – | 93 ± 6^n = 6% | >95 | 29 | 66 ± 8 | 80 ± 6 | – | – | 76 ± 2 | 87 ± 9 | – | – | –
6 | O=C(NCCCCCn1ccc2ccc(F)cc21)Oc1ccc(F)cc1 [Compound 26, 4-Fluorophenyl N-[5-(6-Fluoroindol-1-yl)pentyl]carbamate] | 69 ± 4 | 59 ± 13^n = 6% | 91 ± 6^n = 5% | >95 | 49 | – | – | – | – | – | – | – | – | –
7 | N#Cc1ccc(OC(=O)NCCCCCn2ccc3ccc(F)cc32)cc1 [Compound 29, 4-Cyanophenyl N-[5-(6-Fluoroindol-1-yl)pentyl]carbamate] | – | – | – | 12 ± 3 | – | – | – | – | – | – | – | nearly totally cleaved | – | –
8 | CNC(=O)Oc1ccc2c(c1)[C@]1(C)CCN(C)[C@@H]1N2C [physostigmine, reference compound] | 57 ± 4 | >95% | >95% | >95 | – | 76 ± 7 | >95 | – | – | – | – | – | – | –
9 | O=C(NCCCCCn1ccc2ccc(F)cc21)Oc1cccc2[nH]ccc12 [Compound 49, Indol-4-yl N-[5-(6-Fluoroindol-1-yl)pentyl]carbamate] | 78 ± 4 | 80 ± 3% | 81 ± 6% | >95 | 180 | – | – | – | – | – | – | – | about 6 fold | –
10 | CCOC(=O)C1=C[C@@H](OC(CC)CC)[C@H](NC(C)=O)[C@@H](N)C1 [oseltamivir, reference compound] | – | – | – | – | – | – | – | – | – | 11 ± 2 | 97 ± 1 | – | – | –
11 | Cc1ccc(OC(=O)NCCCCCn2ccc3ccc(F)cc32)cn1 [Compound 48] | 51 ± 9 | <5% | 62 ± 4% | 82 ± 6 | 4 | – | – | 310 | – | – | – | – | – | –
12 | O=C(NCCCCCCn1ccc2ccc(F)cc21)Oc1ccccc1 [Compound 17] | – | – | – | – | 85 | 73 ± 2 | 55 ± 2 | – | – | – | – | – | – | –
13 | N#Cc1cccc(OC(=O)NCCCCCn2ccc3ccc(F)cc32)c1 [Compound 30] | 49 ± 4 | < 5% | <5% | 72 ± 3 | 8 | – | – | 380 | – | – | – | – | – | –
14 | N#Cc1ccccc1OC(=O)NCCCCCn1ccc2ccc(F)cc21 [Compound 31] | – | – | – | 3 ± 2 | – | – | – | – | – | – | – | – | – | –
15 | Cc1ncccc1OC(=O)NCCCCCn1ccc2ccc(F)cc21 [Compound 45] | 65 ± 9 | 23 ± 6% | 70 ± 8% | 75 ± 4 | 10 | – | – | 140 | – | – | – | – | – | –
16 | O=C(NCCCCCCCn1ccc2ccc(F)cc21)Oc1ccccc1 [Compound 21] | – | – | – | – | 84 | 74 ± 11 | 34 ± 5 | – | – | – | – | – | – | –
17 | O=C(NCCCCCn1ccc2ccc(F)cc21)Oc1ccc(C(=O)O)cc1 [Compound 33, 4-({[5-(6-Fluoroindol-1-yl)pentyl]carbamoyl}oxy)benzoic Acid] | 59 ± 6 | 37 ± 2% | 90 ± 9% | >95 | 12 | – | – | 3300 | – | 59 ± 6 | 81 ± 8 | – | – | –
18 | O=C(O)c1ccccc1OC(=O)N1CCC(CCn2ccc3ccc(F)cc32)CC1 [Compound 58] | 72 ± 6 | >95% | 89 ± 6% | >95 | 3500 | – | – | – | – | – | – | – | – | –
19 | O=C(NCCCCCn1ccc2ccc(F)cc21)Oc1cccnc1 [Compound 44] | 53 ± 7 | <5% | 27 ± 3% | 60 ± 2 | 2 | – | – | 170 | – | – | – | – | – | –
20 | O=C(NCCCCCCCCn1ccc2ccc(F)cc21)Oc1ccccc1 [Compound 25, Phenyl N-[8-(6-Fluoroindol-1-yl)octyl]carbamate] | – | – | – | – | 130 | 74 ± 5 | 65 ± 2 | – | – | – | – | – | – | –
21 | O=C(NCCCCn1ccc2ccc(F)cc21)Oc1ccccc1 [Compound 11] | – | – | – | – | 470 | 75 ± 6 | 74 ± 2 | – | – | – | – | – | – | –
22 | O=C(NCCCCCn1ccc2ccc(F)cc21)Oc1ccccc1C(=O)O [Compound 37, 2-({[5-(6-Fluoroindol-1-yl)pentyl]carbamoyl}oxy)benzoic Acid] | 77 ± 3 | 28 ± 4% | 74 ± 2% | 73 ± 6 | 38 | – | – | 38 | – | – | – | – | – | 15
